Laboratory results from patent US20120245137A1 (Zalicus Pharmaceuticals Ltd., priority 2009, published 2012).
Read-outs that look alike come from different tables or passages of the source.

Tests used:
Assay type in all cases: cell-based
[1] = target: N-type calcium channel subunits (α1B, α2δ, and β3a) (Homo sapiens, UniProt Q00975); experiment: Block of Cav2.2 channel, whole cell voltage clamp, manual and PatchXpress; conditions: Table 5; table follows Assay Example 3 (whole cell voltage clamp / PatchXpress); assay not given
Procedure: Cells are grown either on poly-D-lysine coated coverglass (manual EP) or in TIS culture plates (PatchXpress). For the PatchExpress, cells are released from the flask using trypsin. In both cases, the […] solution is (in mM): 130 […], 10 EGTA, 10 HEPES, 2 MgCl2, 3 MgATP, pH 7.3 with CsOH.
Microelectrodes are fabricated from borosilicate glass and fire-polished. […] The reference electrode is a silver-silver chloride pellet. Voltages are not corrected for the liquid junction potential between the internal and external solutions and leak is subtracted using the P/n procedure. Solutions are applied to cells by bath perfusion via gravity. The experimental chamber volume is—0.2 mL. and the perfusion rate is 0.5-2 mL/min. Flow of suction through the chamber is maintained at all times. Measurement of current amplitudes is performed with […] software (HEKA Elektronik).
PatchXpress (Molecular Devices) is a 16-well whole-cell automated patch clamp device that operates asynchronously with fully integrated fluidics. […] Capacitance and series resistance compensation is automated. No correction for liquid junction potentials is employed. Leak is subtracted using the P/n procedure. Compounds are added to cells with a pipettor from a 96-well compound plate. Voltage protocols and the recording of membrane currents are performed using the PatchXpress software/hardware system. Current amplitudes are calculated with DataXpress software.
In both manual and automated patch clamp, cells are voltage clamped at […] or −90 m V and 50 ms pulses to +20 mV are applied every 15 sec (0.067 Hz). Compounds are added in escalating doses to measure % inhibition. Percent inhibition is calculated from the ratio of the curerent amplitude in the presence and absence of compound. When multiple doses are achieved per cell, IC50 values are calculated.

Human Cav 2.2 channels = Human Cav 2.2 channels (Homo sapiens, UniProt Q00975); experiment: Fluorescent assay for CaV2.2 channels using potassium depolarization (VIPR/FLIPR); conditions: FLIPR data; for CAv2.2 IC50 Ratio closed/inact.: ratio closed/inactivated IC50
Text: Human Cav 2.2 channels were stably expressed in HEK293 cells along with alpha2-delta and beta subunits of voltage-gated calcium channels. An inwardly rectifying potassium channel (Kir2.3) was also expressed in these cells to allow more precise control of the cell membrane potential by extracellular potassium concentration. At low bath potassium concentration, the membrane potential is relatively negative, and is depolarized as the bath potassium concentration is raised. In this way, the bath potassium concentration can be used to regulate the voltage-dependent conformations of the channels. […] After the incubation period, Cav2.2 channel opening is triggered by addition of higher concentration of potassium (70 mM final concentration) to further depolarize the cell. The degree of state-dependent block can be estimated from the inhibitory potency of compounds after incubation in different potassium concentrations.
Calcium influx through Cav 2.2 channels is determined using a calcium sensitive fluorescent dye in combination with a fluorescent plate reader. Fluorescent changes were measured with either a VIPR (Aurora Instruments) or FLIPR (Molecular Devices) plate reader.
1. Seed cells in Poly-D-Lysine Coated 96 or 384-well plate and keep in a 3rC-IO % C02 incubator overnight.
2. Remove media, wash cells with 0.2 mL (96-well plate) or 0.05 mL (384-well plate) Dulbecco's Phosphate Buffered Saline (D-PBS) with calcium & magnesium (Invitrogen; 14040).
3. Add 0.1 mL (96-well plate) or 0.05 mL (384-well plate) of 4˜M fluor-4 (Molecular Probes; F-14202) and 0.02% Pluronic acid (Molecular Probes; P-3(00) prepared in D-PBS with calcium & magnesium (Invitrogen; 14040) supplemented with 10 mM Glucose & 10 mM HepeslNaOH; pH 7.4.
4. Incubate in the dark at 25° C. for 60-70 min.
5. Remove dye, wash cells with 0.1 mL (96-well plate) or 0.06 mL (384-well plate) of 4, 12, 25, or 30 mM Potassium Pre-polarization Buffer (PPB).
6. Add 0.1 mL (96-well plate) or 0.03 mL (384-well plate) of 4, 12, 25, 30 mM PPB with or without test compound.
7. Incubate in the dark at 25° C. for 30 min
8. Read cell plate on VIPR instrument, Excitation=480 nm, Emission=535 nm.
9. With VIPR continuously reading, add 0.1 mL (96-well plate) or 0.03 mL (384-well plate) of Depolarization Buffer (DB), which is 2× the final assay concentration, to the cell plate.

T-type calcium channel = T-type calcium channel (Homo sapiens, UniProt O95180); experiment: T-type channel blocking, FLIPR data (Table 6); conditions: for CAv3.2 IC50 Ratio closed/inact.: CAv3.2, ratio closed/inactivated IC50
Text: Another method, high-throughput spectrophotometric assay, utilizes loading of the cell lines with a fluorescent dye sensitive to intracellular calcium concentration and subsequent examination of the effects of compounds on the ability of depolarization by potassium chloride or other means to alter intracellular calcium levels.

CAv1.2 = CAv1.2 (Homo sapiens, UniProt Q13936); experiment: FLIPR data, CAv1.2 channel blocking (Table 6)
[2] = closed state, read-out: CAv2.2 IC50 Closed
[3] = inactivated state, read-out: CAv2.2 IC50 Inact.
[4] = CAv3.2, inactivated state, read-out: CAv3.2 IC50 Inact.
[5] = closed state, read-out: CAv1.2 IC50 Closed
[6] = inactivated state, read-out: CAv1.2 IC50 Inact.
[7] = CAv3.2, closed state, read-out: CAv3.2 IC50 Closed

Sequence of Human Cav 2.2 channels (Q00975 whole entry): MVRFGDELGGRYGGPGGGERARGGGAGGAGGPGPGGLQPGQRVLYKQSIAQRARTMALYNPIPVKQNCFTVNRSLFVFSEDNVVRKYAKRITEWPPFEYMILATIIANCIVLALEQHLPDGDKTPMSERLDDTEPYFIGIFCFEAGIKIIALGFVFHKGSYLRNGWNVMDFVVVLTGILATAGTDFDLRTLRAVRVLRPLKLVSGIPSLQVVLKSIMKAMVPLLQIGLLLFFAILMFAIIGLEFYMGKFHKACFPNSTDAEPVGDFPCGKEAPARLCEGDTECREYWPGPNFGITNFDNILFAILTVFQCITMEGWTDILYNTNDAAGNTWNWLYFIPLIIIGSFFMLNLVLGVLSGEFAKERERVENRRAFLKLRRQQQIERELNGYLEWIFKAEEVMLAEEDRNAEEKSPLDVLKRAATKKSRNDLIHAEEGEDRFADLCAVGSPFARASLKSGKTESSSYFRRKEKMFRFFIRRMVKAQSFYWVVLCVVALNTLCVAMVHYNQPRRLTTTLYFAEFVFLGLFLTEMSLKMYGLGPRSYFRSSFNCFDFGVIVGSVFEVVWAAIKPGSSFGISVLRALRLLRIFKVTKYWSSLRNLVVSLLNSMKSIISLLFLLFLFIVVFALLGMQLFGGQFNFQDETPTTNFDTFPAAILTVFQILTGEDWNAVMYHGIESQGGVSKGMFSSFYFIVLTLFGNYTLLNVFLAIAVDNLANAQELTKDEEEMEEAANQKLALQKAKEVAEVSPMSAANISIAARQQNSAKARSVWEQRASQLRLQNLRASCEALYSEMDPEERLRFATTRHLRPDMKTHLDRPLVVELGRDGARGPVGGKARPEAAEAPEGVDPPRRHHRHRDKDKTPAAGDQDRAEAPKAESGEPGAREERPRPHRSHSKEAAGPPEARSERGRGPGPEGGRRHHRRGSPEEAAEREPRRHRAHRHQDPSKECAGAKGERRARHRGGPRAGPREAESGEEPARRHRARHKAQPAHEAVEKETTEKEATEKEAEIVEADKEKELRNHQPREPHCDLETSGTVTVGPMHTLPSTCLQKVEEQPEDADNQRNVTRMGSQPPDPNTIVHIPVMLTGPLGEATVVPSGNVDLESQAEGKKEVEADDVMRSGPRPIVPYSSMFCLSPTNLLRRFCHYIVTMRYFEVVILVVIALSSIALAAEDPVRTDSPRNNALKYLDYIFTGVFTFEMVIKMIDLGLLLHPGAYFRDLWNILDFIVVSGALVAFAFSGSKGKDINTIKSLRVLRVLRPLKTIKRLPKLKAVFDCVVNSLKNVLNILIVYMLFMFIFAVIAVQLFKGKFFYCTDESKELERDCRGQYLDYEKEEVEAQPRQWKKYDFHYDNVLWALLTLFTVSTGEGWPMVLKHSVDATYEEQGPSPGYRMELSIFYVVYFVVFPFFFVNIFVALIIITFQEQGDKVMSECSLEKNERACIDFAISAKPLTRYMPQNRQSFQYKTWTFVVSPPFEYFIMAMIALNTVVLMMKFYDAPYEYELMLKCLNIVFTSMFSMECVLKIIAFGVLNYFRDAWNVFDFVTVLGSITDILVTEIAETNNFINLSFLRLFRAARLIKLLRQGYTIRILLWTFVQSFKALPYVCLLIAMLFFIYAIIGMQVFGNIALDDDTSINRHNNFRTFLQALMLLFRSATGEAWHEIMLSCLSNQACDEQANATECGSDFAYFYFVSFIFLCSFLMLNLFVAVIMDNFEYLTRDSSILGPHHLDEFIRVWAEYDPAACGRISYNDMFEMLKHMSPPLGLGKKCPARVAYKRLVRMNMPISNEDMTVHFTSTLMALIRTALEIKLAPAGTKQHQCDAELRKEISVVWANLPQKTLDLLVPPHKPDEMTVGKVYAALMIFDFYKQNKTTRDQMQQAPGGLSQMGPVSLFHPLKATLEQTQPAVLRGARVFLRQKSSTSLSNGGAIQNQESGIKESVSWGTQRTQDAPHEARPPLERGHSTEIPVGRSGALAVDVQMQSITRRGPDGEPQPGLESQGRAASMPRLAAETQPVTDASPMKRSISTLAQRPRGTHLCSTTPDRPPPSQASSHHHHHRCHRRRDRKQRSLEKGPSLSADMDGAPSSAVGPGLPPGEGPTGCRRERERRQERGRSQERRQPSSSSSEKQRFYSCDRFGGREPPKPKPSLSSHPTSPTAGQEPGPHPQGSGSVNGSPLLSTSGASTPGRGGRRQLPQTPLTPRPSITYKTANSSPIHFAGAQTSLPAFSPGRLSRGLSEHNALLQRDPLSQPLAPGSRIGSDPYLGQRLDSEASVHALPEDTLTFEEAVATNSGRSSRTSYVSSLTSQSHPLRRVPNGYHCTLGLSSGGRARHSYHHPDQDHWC
Sequence of Human Cav 2.2 channels (P54289 25-1103 partner): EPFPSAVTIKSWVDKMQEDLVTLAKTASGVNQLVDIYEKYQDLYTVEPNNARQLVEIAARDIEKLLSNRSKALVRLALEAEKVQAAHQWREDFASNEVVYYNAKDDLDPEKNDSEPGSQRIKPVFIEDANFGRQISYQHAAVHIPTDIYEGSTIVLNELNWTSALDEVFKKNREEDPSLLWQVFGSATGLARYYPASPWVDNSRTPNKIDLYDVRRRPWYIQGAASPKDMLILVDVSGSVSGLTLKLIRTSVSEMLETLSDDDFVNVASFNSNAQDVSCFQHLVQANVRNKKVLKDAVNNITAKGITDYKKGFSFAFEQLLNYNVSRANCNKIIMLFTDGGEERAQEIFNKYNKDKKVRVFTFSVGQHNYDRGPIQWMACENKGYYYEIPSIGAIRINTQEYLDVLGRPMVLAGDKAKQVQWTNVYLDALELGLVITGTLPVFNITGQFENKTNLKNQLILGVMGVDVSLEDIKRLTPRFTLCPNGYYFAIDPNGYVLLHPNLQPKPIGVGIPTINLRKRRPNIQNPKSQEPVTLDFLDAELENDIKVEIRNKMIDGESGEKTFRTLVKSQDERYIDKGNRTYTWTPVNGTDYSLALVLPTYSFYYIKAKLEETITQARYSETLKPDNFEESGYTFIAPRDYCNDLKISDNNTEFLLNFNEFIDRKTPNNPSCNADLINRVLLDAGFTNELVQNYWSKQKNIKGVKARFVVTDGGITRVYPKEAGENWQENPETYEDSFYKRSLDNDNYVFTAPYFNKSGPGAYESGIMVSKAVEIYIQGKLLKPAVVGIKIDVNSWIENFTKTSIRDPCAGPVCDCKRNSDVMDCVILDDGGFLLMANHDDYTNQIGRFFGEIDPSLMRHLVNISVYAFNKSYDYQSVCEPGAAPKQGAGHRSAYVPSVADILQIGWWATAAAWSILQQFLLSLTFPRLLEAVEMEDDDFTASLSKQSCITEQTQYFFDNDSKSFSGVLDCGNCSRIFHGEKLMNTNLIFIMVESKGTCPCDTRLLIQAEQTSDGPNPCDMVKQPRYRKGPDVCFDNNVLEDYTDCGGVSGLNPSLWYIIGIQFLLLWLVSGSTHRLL
Sequence of Human Cav 2.2 channels (P54284 whole entry partner): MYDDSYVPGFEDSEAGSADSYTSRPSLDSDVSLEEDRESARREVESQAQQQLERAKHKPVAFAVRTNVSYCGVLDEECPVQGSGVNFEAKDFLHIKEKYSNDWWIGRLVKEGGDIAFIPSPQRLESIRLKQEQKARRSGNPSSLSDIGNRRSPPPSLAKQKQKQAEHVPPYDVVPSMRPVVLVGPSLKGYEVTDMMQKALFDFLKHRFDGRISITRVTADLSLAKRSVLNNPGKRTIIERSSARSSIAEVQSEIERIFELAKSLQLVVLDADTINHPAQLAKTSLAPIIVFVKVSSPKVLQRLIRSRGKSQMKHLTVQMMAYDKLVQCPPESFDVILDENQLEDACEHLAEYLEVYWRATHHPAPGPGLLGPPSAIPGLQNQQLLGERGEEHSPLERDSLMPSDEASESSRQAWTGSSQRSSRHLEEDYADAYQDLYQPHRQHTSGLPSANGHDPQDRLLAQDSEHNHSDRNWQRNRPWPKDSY
Sequence of N-type calcium channel subunits (α1B, α2δ, and β3a) (Q00975 whole entry): as the sequence (Q00975 whole entry) above
Sequence of N-type calcium channel subunits (α1B, α2δ, and β3a) (P54289 25-1103 partner): as the sequence (P54289 25-1103 partner) above
Sequence of N-type calcium channel subunits (α1B, α2δ, and β3a) (P54284 whole entry partner): as the sequence (P54284 whole entry partner) above

| Compound | IC50 [1] [nM] | IC50 (Human Cav 2.2 channels; [2]) [µM] | IC50 (Human Cav 2.2 channels; [3]) [µM] | CAv2.2 IC50 Ratio closed/inact. (Human Cav 2.2 channels) | IC50 (T-type calcium channel; [4]) [µM] | IC50 (T-type calcium channel; [7]) [µM] | CAv3.2 IC50 Ratio closed/inact. (T-type calcium channel) | IC50 (CAv1.2; [5]) [µM] | IC50 (CAv1.2; [6]) [µM] |
| --- | --- | --- | --- | --- | --- | --- | --- | --- | --- |
| O=C(N[C@H]1CC[C@@H](S(=O)(=O)c2cccc(C(F)(F)F)c2)CC1)c1ccnc(F)c1 [Compound 201, 2-fluoro-N-((1S,4S)-4-(3-(trifluoromethyl)phenylsulfonyl)cyclohexyl)isonicotinamide] | 1860 | – | – | – | – | – | – | – | – |
| O=C(N[C@H]1C[C@H](S(=O)(=O)c2cccc(C(F)(F)F)c2)C1)c1cc(F)cc(Cl)c1 [Compound 220, 3-chloro-5-fluoro-N-(trans-3-(3-(trifluoromethyl)phenylsulfonyl)cyclobutyl)benzamide] | 3350 | – | – | – | – | – | – | – | – |
| O=C(NC[C@H]1C[C@H](S(=O)(=O)c2cc(F)cc(C(F)(F)F)c2)C1)c1ccc(F)c(Cl)c1 [Compound 391, 3-chloro-4-fluoro-N-(((1R,3R)-3-(3-fluoro-5-(trifluoromethyl)phenylsulfonyl)cyclobutyl)rnethyl)benzamide] | 730 | – | – | – | – | – | – | – | – |
| O=C(NC[C@H]1CC[C@@H](S(=O)(=O)c2cccc(C(F)(F)F)c2)CC1)c1cc(C(F)(F)F)n[nH]1 [Compound 34, 3-(trifluoromethyl)-N-(((1S,4S)-4-(3-(trifluoromethyl)phenylsulfonyl)cyclohexyl)methyl)-1H-pyrazole-5-carboxamide] | 640 | – | – | – | – | – | – | – | – |
| O=C1c2ccc(C(F)(F)F)cc2C(=O)N1C1CCC(F)(S(=O)(=O)c2cccc(C(F)(F)F)c2)CC1 [Compound 280, 2-((1S,4S)-4-fluoro-4-(3-(trifluoromethyl)phenylsulfonyl)cyclohexyl)-5-(trifluoromethyl)isoindoline-1,3-dione] | > 10000 | – | – | – | – | – | – | – | – |
| CC(C)([C@H]1C[C@H](NC(=O)CC2(N)CCCCC2)C1)S(=O)(=O)c1cc(F)cc(C(F)(F)F)c1 [Compound 654] | – | 8.47 | 1.44 | 5.9 | 10 | – | – | ≥ 10 | ≥ 10 |
| CNC1(CC(=O)N[C@H]2C[C@H](C(C)(C)S(=O)(=O)c3cccc(OC(F)(F)F)c3)C2)CCCCC1 [Compound 662] | – | 5.65 | 1.25 | 4.5 | 10 | – | – | ≥ 10 | ≥ 10 |
| CC(C)(C[C@H]1C[C@H](NC(=O)c2ncc(C(F)(F)F)cc2S(C)(=O)=O)C1)S(=O)(=O)c1cccc(C(F)(F)F)c1 [Compound 717] | – | 8.63 | 0.49 | 17.6 | 9.98 | ≥ 10 | 1 | ≥ 10 | ≥ 10 |
| CNC1(CC(=O)N[C@H]2C[C@H](C(C)(C)S(=O)(=O)c3cc(F)cc(C(F)(F)F)c3)C2)CCCCC1 [Compound 659] | – | 9.71 | 1.93 | 5 | 10 | – | – | ≥ 10 | ≥ 10 |
| O=C(NC[C@H]1C[C@H](S(=O)(=O)c2cccc(OC(F)(F)F)c2)C1)c1ccnc(C(F)(F)F)n1 [Compound 697] | – | 3.78 | 0.71 | 5.3 | 8.91 | ≥ 10 | 1.1 | ≥ 10 | ≥ 10 |
| NC1(CC(=O)NC[C@H]2C[C@H](S(=O)(=O)c3cc(F)cc(C(F)(F)F)c3)C2)CCCCC1 [Compound 708] | – | 7.67 | 3.03 | 2.5 | 10 | – | – | ≥ 10 | ≥ 10 |

Continued, in another order:

| IC50 [1] [nM] | IC50 (Human Cav 2.2 channels; [2]) [µM] | IC50 (Human Cav 2.2 channels; [3]) [µM] | CAv2.2 IC50 Ratio closed/inact. (Human Cav 2.2 channels) | IC50 (T-type calcium channel; [4]) [µM] | IC50 (T-type calcium channel; [7]) [µM] | CAv3.2 IC50 Ratio closed/inact. (T-type calcium channel) | Compound | IC50 (CAv1.2; [5]) [µM] | IC50 (CAv1.2; [6]) [µM] |
| --- | --- | --- | --- | --- | --- | --- | --- | --- | --- |
| 80 | – | – | – | – | – | – | CC(C)([C@H]1C[C@H](NC(=O)c2ccc(F)c(C(F)(F)F)c2)C1)S(=O)(=O)c1cccc(C(F)(F)F)c1 [Compound 440, 4-fluoro-3-(trifluoromethyl)-N-((1R,3R)-3-(2-(3-(trifluoromethyl)phenylsulfonyl)propan-2-yl)cyclobutyl)benzamide] | – | – |
| – | 10 | 1.08 | 9.3 | 10 | ≥ 10 | 1 | CC(C)([C@H]1C[C@@H](NC(=O)c2ccc(C(F)(F)F)cc2S(C)(=O)=O)C1)S(=O)(=O)c1cc(F)cc(C(F)(F)F)c1 [Compound 585] | – | ≥ 10 |
| – | 10 | 0.9 | 11.1 | 10 | ≥ 10 | 1 | CC(C)([C@H]1C[C@@H](NC(=O)c2ncc(C(F)(F)F)cc2S(C)(=O)=O)C1)S(=O)(=O)c1cccc(OC(F)(F)F)c1 [Compound 644] | – | ≥ 10 |
| – | 5.86 | 0.95 | 6.2 | 3.27 | ≥ 10 | 3.1 | CC(C)([C@H]1C[C@@H](NC(=O)c2ccnc(C(F)(F)F)n2)C1)S(=O)(=O)c1cc(F)cc(C(F)(F)F)c1 [Compound 588] | ≥ 10 | ≥ 10 |
| – | 9.1 | 0.46 | 19.8 | 10 | ≥ 10 | 1 | CC(C)(C[C@H]1C[C@@H](NC(=O)c2ncc(C(F)(F)F)cc2S(C)(=O)=O)C1)S(=O)(=O)c1cccc(C(F)(F)F)c1 [Compound 730] | ≥ 10 | ≥ 10 |
| – | 10 | 0.46 | 21.7 | 10 | ≥ 10 | 1 | CC(C)([C@H]1C[C@H](NC(=O)c2ccc(C(F)(F)F)cc2S(C)(=O)=O)C1)S(=O)(=O)c1cc(F)cc(C(F)(F)F)c1 [Compound 592] | ≥ 10 | ≥ 10 |
